Measurements as given in US9364479B2, “Use of a receptor-type kinase modulator for treating polycystic kidney disease” (SYMPHONY EVOLUTION, INC., priority 2010, dated 2016).

Assays:
[1] = test system: A431 human epidermoid carcinoma xenograft; assay: A431 xenograft model, tumor growth; format: in vivo, mouse; conditions: for ED50: Mus musculus
Procedure: Female severe combined immunodeficient mice and female athymic nude mice (NCr), 5 to 8 weeks of age and weighing ˜20 to 25 g, were purchased from The Jackson Laboratory and Taconic, respectively. The animals were housed at the Exelixis vivarium facilities according to guidelines outlined by the Exelixis Institutional Animal Care and Use Committee. During all studies, animals were provided food and water ad libitum and housed in a room conditioned at 70° F. to 75° F. and 60% relative humidity.
Before treatment, H1975, A431, or MDA-MB-231 cells were harvested from exponentially growing cultures, detached by brief trypsinization, washed twice in cold HBSS, resuspended in ice-cold HBSS, and implanted either s.c. (H1975, 3×10^6 cells per mouse) or i.d. (A431, 1×10^6 cells per mouse) into the dorsal hind flank or s.c. into the mammary fat pad (MDA-MB-231, 1×10^6 cells per mouse). Palpable tumors were measured by caliper twice weekly until the mean tumor weight was in the range of ˜80 to 120 mg. Tumor weight was determined by measuring perpendicular diameters with a caliper and multiplying the measurements of diameters in two dimensions: tumor […]. Tumor weight (mg) was extrapolated from tumor volume (mm3) by assuming a conversion factor of 1. On the appropriate day after implantation, mice were grouped (10 mice per group) such that the group mean tumor weight was ˜100±15 mg. The mean tumor weight of each animal in the respective control and treatment groups was determined twice weekly during the dosing periods. Tumor xenografts were established in female mice and allowed to reach approximately 100 mg prior to treatment. An example is described in Gendreau S B, Ventura R, Keast P, et al., Inhibition of the T790M Gatekeeper Mutant of the Epidermal Growth Factor Receptor by EXEL-7647, Clin Cancer Res 3713, 13(12) (2007), which is hereby incorporated by reference.
The response of tumors to treatment was determined by comparing the mean tumor weight of the treatment group with the appropriate control group. Percentage inhibition of tumor growth was determined with the following formula: Percentage inhibition=100×[1−(Xf−Xo)/(Yf−Yo)], where Xf and Yf are the mean tumor weights of the treatment and control groups, respectively, on day f, and Xo and Yo are the mean tumor weights of treatment and control groups respectively, on day zero (staged tumor weights after grouping)

[2] = target: T1, Histamine, H1 (Homo sapiens, UniProt P35367); assay: NovaScreen assay; format: binding; conditions: read-out: Inhibition, 10 μM XL-647
T1 construct: NovaScreen

[3] = target: T2, Muscarinic, M1 (Human Recombinant) (Homo sapiens, UniProt P11229); assay: NovaScreen assay; format: binding
T2 construct: NovaScreen
T2 sequence (P11229 whole entry): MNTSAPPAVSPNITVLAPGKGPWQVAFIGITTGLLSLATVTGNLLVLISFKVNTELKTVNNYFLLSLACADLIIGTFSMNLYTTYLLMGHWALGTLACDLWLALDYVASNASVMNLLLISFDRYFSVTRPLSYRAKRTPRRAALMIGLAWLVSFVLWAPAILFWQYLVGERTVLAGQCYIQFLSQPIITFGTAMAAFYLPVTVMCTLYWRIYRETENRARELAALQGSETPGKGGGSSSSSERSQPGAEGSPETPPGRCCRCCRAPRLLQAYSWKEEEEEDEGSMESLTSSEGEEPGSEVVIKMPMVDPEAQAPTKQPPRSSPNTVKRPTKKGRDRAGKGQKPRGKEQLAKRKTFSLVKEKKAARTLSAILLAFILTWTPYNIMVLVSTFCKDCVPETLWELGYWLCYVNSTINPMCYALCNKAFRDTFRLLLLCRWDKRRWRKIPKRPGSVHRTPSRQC

[4] = test system: Adrenergic, Alpha 1, Non-selective; assay: NovaScreen assay; format: binding
[5] = target: CDK2 (Homo sapiens, UniProt P24941); assay: In vitro kinase inhibition screen; format: biochemical
Procedure: (§1) Further screening was performed using the biochemical assay methods of Example 2. Additional description of the components and concentrations are summarized in Table 8, Table 9, and Table 10, below.

[6] = target: p70S6K (Homo sapiens, UniProt P23443); assay: In vitro kinase inhibition screen; format: biochemical
p70S6K, sequence (P23443 whole entry): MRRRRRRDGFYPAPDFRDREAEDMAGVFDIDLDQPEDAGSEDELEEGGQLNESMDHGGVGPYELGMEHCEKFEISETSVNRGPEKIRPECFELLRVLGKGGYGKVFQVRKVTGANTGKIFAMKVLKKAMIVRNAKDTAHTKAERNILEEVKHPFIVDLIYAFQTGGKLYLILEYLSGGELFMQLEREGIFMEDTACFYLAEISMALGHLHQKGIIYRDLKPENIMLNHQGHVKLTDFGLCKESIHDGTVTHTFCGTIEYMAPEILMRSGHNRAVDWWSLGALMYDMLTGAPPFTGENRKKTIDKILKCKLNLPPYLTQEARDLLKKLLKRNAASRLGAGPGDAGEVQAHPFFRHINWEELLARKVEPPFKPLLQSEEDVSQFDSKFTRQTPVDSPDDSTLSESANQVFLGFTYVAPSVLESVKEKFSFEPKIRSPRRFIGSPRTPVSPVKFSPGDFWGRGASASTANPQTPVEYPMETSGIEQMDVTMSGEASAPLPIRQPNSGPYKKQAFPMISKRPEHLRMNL
Procedure: as §1

[7] = target: CamKII; assay: In vitro kinase inhibition screen; format: biochemical
Procedure: as §1

[8] = target: Rsk2 (Homo sapiens, UniProt P51812); assay: In vitro kinase inhibition screen; format: biochemical
Procedure: as §1

[9] = target: MKK4 (Homo sapiens, UniProt P45985); assay: In vitro kinase inhibition screen; format: biochemical
Procedure: as §1

[10] = target: Clk2 (Homo sapiens, UniProt P49760); assay: In vitro kinase inhibition screen; format: biochemical
Procedure: as §1

[11] = target: CDK3 (Homo sapiens, UniProt Q00526); assay: In vitro kinase inhibition screen; format: biochemical
Procedure: as §1

[12] = target: T3, PKC-ξ; assay: In vitro kinase inhibition screen; format: biochemical
T3 construct: PKC-eta; Human, PanVera
Procedure: as §1

[13] = target: MAP4K5 (Homo sapiens, UniProt Q9Y4K4); assay: In vitro kinase inhibition screen; format: biochemical
Procedure: as §1

[14] = target: CK2 (Homo sapiens, UniProt P68400); assay: In vitro kinase inhibition screen; format: biochemical
Procedure: as §1

[15] = target: MAPK2 (Homo sapiens, UniProt P28482); assay: In vitro kinase inhibition screen; format: biochemical
Procedure: as §1

[16] = target: JNK2α (Homo sapiens, UniProt P45984); assay: In vitro kinase inhibition screen; format: biochemical
Procedure: as §1

[17] = target: PRAK (Homo sapiens, UniProt Q8IW41); assay: In vitro kinase inhibition screen; format: biochemical
PRAK, sequence (Q8IW41 whole entry, species assumed): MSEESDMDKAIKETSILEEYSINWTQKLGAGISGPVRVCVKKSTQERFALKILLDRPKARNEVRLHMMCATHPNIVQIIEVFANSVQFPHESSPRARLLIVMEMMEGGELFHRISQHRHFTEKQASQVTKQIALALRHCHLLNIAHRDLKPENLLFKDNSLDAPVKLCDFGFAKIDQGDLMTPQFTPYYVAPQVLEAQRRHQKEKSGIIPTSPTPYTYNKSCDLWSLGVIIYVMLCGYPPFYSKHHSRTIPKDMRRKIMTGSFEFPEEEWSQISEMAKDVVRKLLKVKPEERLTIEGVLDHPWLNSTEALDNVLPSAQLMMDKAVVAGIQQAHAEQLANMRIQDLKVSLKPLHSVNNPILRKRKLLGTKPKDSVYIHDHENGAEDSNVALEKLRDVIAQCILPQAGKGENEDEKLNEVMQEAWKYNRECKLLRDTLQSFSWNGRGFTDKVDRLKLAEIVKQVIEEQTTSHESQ
Procedure: as §1

[18] = In vitro kinase inhibition screen; format: biochemical
Procedure: as §1

[19] = target: CamKIV (Homo sapiens, UniProt Q16566); assay: In vitro kinase inhibition screen; format: biochemical
CamKIV, sequence (Q16566 whole entry, species assumed): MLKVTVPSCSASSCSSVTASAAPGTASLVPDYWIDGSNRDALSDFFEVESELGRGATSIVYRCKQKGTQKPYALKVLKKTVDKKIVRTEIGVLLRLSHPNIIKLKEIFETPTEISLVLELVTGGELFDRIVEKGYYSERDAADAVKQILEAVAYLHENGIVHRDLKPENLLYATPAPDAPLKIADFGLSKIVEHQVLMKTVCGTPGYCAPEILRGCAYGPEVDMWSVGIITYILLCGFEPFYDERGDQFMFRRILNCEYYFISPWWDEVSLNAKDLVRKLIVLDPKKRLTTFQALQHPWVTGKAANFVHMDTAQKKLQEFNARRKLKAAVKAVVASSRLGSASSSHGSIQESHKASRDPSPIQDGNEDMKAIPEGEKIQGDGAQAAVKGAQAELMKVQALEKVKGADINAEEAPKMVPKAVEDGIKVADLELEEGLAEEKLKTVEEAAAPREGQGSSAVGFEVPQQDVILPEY
Procedure: as §1

[20] = target: Rsk3 (Homo sapiens, UniProt Q15349); assay: In vitro kinase inhibition screen; format: biochemical
Rsk3, sequence (Q15349 whole entry, species assumed): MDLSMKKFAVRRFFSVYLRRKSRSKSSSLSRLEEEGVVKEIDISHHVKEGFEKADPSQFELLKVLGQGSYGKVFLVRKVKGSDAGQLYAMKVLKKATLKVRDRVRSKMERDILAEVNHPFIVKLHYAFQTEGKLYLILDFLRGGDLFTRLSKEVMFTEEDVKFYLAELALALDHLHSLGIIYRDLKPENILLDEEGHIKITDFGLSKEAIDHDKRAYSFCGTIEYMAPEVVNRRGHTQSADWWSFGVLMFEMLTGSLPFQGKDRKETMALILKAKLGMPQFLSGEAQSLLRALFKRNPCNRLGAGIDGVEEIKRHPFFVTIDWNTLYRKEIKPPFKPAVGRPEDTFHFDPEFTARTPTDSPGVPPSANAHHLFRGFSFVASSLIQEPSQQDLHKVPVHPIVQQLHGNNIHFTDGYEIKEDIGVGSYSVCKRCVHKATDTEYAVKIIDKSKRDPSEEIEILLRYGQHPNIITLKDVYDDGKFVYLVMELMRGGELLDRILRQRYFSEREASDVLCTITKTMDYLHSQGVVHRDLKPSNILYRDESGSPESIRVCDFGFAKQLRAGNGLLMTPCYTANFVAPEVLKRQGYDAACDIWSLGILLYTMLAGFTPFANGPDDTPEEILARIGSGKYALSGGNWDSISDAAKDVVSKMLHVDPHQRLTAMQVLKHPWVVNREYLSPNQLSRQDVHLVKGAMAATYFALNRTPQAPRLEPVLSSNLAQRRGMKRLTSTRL
Procedure: as §1

[21] = target: MEK1 (Homo sapiens, UniProt Q02750); assay: In vitro kinase inhibition screen; format: biochemical
Procedure: as §1

[22] = target: SAPK4 (Homo sapiens, UniProt O15264); assay: In vitro kinase inhibition screen; format: biochemical
Procedure: as §1

[23] = target: IKKα (Homo sapiens, UniProt O15111); assay: In vitro kinase inhibition screen; format: biochemical
IKKα, sequence (O15111 whole entry, species assumed): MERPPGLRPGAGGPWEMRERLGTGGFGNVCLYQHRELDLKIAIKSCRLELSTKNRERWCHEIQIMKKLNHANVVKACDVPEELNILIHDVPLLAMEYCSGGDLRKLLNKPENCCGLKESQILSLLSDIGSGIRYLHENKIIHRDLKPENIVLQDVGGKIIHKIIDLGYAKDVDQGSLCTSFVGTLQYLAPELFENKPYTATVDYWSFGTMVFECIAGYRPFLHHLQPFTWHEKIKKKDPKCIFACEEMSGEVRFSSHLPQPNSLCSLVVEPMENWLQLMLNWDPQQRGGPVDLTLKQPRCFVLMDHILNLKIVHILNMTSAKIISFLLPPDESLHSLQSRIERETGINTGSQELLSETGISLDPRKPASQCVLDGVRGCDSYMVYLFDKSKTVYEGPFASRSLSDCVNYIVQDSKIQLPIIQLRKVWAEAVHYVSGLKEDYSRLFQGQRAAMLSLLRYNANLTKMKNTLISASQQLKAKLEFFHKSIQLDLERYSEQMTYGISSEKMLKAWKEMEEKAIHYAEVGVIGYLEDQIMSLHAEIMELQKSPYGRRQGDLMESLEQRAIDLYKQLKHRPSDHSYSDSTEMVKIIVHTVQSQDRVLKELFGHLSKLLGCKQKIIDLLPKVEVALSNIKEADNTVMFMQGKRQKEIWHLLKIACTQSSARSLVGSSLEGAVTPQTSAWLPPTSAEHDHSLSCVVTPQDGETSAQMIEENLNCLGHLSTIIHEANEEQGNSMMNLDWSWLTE
Procedure: as §1

[24] = target: Clk1 (Homo sapiens, UniProt P49759); assay: In vitro kinase inhibition screen; format: biochemical
Clk1, sequence (P49759 whole entry): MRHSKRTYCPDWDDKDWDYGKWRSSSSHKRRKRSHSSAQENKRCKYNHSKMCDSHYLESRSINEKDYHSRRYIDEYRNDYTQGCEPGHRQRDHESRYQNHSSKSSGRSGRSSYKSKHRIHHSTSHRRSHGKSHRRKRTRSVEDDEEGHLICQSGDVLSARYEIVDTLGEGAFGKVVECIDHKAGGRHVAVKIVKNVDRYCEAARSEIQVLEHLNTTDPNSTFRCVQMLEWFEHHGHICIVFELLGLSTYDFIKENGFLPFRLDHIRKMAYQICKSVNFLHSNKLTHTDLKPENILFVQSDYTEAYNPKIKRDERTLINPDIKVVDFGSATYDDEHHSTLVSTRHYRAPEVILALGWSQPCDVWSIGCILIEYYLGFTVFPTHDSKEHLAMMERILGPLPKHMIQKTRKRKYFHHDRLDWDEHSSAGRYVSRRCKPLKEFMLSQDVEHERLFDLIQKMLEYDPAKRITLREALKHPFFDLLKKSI
Procedure: as §1

[25] = target: CDK7 (Homo sapiens, UniProt P50613); assay: In vitro kinase inhibition screen; format: biochemical
CDK7, sequence (P50613 whole entry, species assumed): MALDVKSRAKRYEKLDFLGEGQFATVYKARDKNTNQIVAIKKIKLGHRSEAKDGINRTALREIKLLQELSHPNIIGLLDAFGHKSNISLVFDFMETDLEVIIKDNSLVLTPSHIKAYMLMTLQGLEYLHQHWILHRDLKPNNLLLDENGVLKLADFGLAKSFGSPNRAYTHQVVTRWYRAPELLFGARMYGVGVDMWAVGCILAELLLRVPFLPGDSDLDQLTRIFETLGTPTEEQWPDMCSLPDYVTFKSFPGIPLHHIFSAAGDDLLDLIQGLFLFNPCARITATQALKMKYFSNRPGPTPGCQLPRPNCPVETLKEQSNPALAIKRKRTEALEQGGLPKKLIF
CDK7, sequence (P51946 whole entry partner, species assumed): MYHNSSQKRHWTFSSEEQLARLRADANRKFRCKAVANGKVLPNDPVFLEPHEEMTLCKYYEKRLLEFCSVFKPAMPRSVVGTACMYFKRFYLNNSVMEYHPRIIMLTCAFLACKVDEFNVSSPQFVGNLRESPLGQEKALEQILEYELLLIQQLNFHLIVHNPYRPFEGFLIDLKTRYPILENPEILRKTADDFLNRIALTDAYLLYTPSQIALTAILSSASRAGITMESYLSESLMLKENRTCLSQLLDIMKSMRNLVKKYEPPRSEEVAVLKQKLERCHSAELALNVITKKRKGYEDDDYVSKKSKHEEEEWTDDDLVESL
CDK7, sequence (P51948 whole entry partner, species assumed): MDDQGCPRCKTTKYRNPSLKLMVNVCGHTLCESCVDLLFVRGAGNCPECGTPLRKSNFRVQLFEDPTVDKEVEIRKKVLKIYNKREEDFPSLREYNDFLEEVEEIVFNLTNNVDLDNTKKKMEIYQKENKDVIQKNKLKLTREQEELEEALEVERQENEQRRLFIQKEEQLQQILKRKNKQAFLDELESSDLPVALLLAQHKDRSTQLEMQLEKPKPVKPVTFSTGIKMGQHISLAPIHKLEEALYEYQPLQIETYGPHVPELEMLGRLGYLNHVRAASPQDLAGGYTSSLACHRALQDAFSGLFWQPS
Procedure: as §1

[26] = target: MKK7β (Homo sapiens, UniProt O14733); assay: In vitro kinase inhibition screen; format: biochemical
Procedure: as §1

[27] = target: MAPK1 (Homo sapiens, UniProt P27361); assay: In vitro kinase inhibition screen; format: biochemical
Procedure: as §1

[28] = target: IKKβ (Homo sapiens, UniProt O14920); assay: In vitro kinase inhibition screen; format: biochemical
Procedure: as §1

With `COc1cc2c(Nc3ccc(Cl)c(Cl)c3F)ncnc2cc1OC[C@@H]1C[C@@H]2CN(C)C[C@@H]2C1` [XL-647, N-(3,4-dichloro-2-fluorophenyl)-7-({[(3aR,5r,6aS)-2-methyloctahydrocyclopenta[c]pyrrol-5-yl]methyl}oxy)-6-(methyloxy)quinazolin-4-amine] the tumor growth inhibition ([1]; 10 mg/kg/day oral, 14 days) was 65%, the “final tumor weight (marked regression)” value ([1]; 100 mg/kg/day oral, 14 days, starting weight 109±20 mg) was 36 ± 15 mg and the “tumor growth, in words” value ([1]; 10, 30, and 100 mg/kg/day oral, 14 days) was “significantly inhibited tumor growth in a dose dependent manner”. It also gave an ED50 ([1]; A-431, qd × 14) of 5.9 mg/kg, an ED50 ([1]; A-431, qd × 28) of 3.8 mg/kg and an inhibition at 10 µM [2] of 59.8%. The IC50 [3] was 2330 nM, the inhibition at 10 µM ([3]; read-out: Inhibition, 10 μM XL-647) was 98.1% and the “Inhibition, 10 μM XL-647” value [4] was 49.40%. For the same compound, the IC50 [5] was > 1000 nM, the IC50 ([6]; list in excess of 1 μM) was > 1000 nM and the IC50 ([6]; list in excess of 10 μM) was > 10000 nM. For the same compound, the IC50 [7] was > 1000 nM, the IC50 [8] was > 1000 nM and the IC50 [9] was > 1000 nM. The IC50 [10] was > 10000 nM, the IC50 [11] was > 1000 nM and the IC50 [12] was > 10000 nM. The IC50 [13] was > 1000 nM, the IC50 [14] was > 1000 nM and the IC50 [15] was > 1000 nM. The IC50 [16] was > 1000 nM, the IC50 [17] was > 1000 nM and the IC50 [18] was > 1000 nM. For the same compound, the IC50 [19] was > 1000 nM, the IC50 [20] was > 1000 nM and the IC50 [21] was > 1000 nM. The IC50 [22] was > 1000 nM, the IC50 [23] was > 1000 nM and the IC50 [24] was > 10000 nM. For the same compound, the IC50 [25] was > 1000 nM, the IC50 [26] was > 1000 nM and the IC50 [27] was > 1000 nM. The IC50 [28] was > 1000 nM.
